According to patent US12583849B2, “KCNT1 inhibitors and methods of use” (Praxis Precision Medicines, Inc., priority 2020, dated 2026):

Molecular target: T1, KCNT1 (KNa1.1, Slack) (Homo sapiens, UniProt Q5JUK3)
T1 construct: expressed in transfected cells; host or cells: HEK-TREX (tetracycline-inducible cell line)
T1 sequence (Q5JUK3 1-1230): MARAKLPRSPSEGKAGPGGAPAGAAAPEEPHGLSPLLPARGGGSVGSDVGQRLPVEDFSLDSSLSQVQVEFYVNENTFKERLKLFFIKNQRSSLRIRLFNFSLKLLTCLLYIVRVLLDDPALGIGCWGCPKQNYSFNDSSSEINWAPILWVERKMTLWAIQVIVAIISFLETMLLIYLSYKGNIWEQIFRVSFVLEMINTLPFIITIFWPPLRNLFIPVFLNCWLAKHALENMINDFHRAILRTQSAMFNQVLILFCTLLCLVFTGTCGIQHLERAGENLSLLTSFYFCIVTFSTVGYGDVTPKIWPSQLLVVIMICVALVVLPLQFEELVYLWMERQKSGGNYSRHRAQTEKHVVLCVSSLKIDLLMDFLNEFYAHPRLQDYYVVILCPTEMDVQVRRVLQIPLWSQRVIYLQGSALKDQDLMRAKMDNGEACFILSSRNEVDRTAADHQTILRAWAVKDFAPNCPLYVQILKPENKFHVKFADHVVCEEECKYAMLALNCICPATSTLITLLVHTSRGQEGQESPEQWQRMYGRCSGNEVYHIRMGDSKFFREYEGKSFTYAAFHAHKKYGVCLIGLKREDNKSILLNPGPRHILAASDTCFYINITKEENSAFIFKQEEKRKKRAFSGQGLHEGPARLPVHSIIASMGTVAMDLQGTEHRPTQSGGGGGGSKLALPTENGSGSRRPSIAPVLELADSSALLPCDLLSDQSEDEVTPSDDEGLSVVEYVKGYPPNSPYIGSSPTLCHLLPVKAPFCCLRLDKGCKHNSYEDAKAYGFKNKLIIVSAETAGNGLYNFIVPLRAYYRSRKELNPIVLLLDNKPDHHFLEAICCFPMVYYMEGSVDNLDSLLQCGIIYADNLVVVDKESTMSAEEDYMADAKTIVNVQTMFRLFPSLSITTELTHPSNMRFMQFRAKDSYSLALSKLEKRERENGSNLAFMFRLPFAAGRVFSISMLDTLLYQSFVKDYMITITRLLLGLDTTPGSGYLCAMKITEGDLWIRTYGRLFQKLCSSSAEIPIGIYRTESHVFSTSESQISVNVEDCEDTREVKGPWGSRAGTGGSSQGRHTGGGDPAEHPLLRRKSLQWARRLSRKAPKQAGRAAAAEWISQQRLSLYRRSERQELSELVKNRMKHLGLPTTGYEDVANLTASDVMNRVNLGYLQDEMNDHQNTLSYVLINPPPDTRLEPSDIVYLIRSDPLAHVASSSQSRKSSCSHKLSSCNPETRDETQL
Assay: KCNT1-WT-Basal Patch Clamp Assay
Type: cell-based
Conditions: tetracycline inducible cell line (HEK-TREX); SyncroPatch 384PE automated patch clamp, perforated patch mode, room temperature, step from -80 mV to 0 mV
Outline: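 Tetracycline-inducible HEK-TREX cells expressing human KCNT1, recorded by automated perforated patch clamp (10 μM escin) at room temperature, with 4 mM external K+ at pH 7.4. Mean current taken during a 100 ms step from −80 mV to 0 mV, averaged over 3 sweeps. IC50 from Hill fit of % inhibition; otherwise % inhibition at top concentration.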

SMILES | IC50
C[C@H](NC(=O)c1cccc(S(C)(=O)=O)c1)c1nc(-c2ccnc(C3CC3)c2)no1 [Compound I-92, (S)—N-(1-(3-(2-cyclopropylpyridin-4-yl)-1,2,4-oxadiazol-5-yl)ethyl)-3-(methylsulfonyl)benzamide] | ≤ 1000 nM
CCS(=O)(=O)c1ccc(C(=O)N[C@@H](C)c2nc(-c3ccnc(C4CC4)c3)no2)s1 [Compound I-93, (S)—N-(1-(3-(2-cyclopropylpyridin-4-yl)-1,2,4-oxadiazol-5-yl)ethyl)-5-(ethylsulfonyl)thiophene-2-carboxamide] | ≤ 1000 nM
C[C@H](NC(=O)c1ccc(Cl)cc1Cl)c1nc(-c2ccnc(C3CC3)c2)no1 [Compound I-94, (S)-2,4-dichloro-N-(1-(3-(2-cyclopropylpyridin-4-yl)-1,2,4-oxadiazol-5-yl)ethyl)benzamide] | ≤ 1000 nM
C[C@H](NC(=O)c1cccc(C(F)(F)F)c1)c1nc(-c2ccnc(C3CC3)c2)no1 [Compound I-95, (S)—N-(1-(3-(2-cyclopropylpyridin-4-yl)-1,2,4-oxadiazol-5-yl)ethyl)-3-(trifluoromethyl)benzamide] | ≤ 1000 nM
C[C@H](NC(=O)c1ccnc(C(F)(F)F)c1)c1nc(-c2ccnc(C3CC3)c2)no1 [Compound I-96, (S)—N-(1-(3-(2-cyclopropylpyridin-4-yl)-1,2,4-oxadiazol-5-yl)ethyl)-2-(trifluoromethyl)isonicotinamide] | ≤ 1000 nM
C[C@H](NC(=O)c1ccc(S(=O)(=O)C2CC2)s1)c1nc(-c2ccnc(C3CC3)c2)no1 [Compound I-97, (S)—N-(1-(3-(2-cyclopropylpyridin-4-yl)-1,2,4-oxadiazol-5-yl)ethyl)-5-(cyclopropylsulfonyl)thiophene-2-carboxamide] | ≤ 1000 nM
C[C@H](NC(=O)C1CC2(CCC2)C1)c1nc(-c2ccnc(C3CC3)c2)no1 [Compound I-98, (S)—N-(1-(3-(2-cyclopropylpyridin-4-yl)-1,2,4-oxadiazol-5-yl)ethyl) spiro[3.3]heptane-2-carboxamide] | ≤ 1000 nM
C[C@H](NC(=O)c1ccnc(C2CC2)c1)c1nc(-c2ccnc(C3CC3)c2)no1 [Compound I-99, (S)-2-cyclopropyl-N-(1-(3-(2-cyclopropylpyridin-4-yl)-1,2,4-oxadiazol-5-yl)ethyl)isonicotinamide] | ≤ 1000 nM
C[C@H](NC(=O)c1cccc(Cl)c1)c1nc(-c2ccnc(C3CCC3)c2)no1 [Compound I-100, (S)-3-chloro-N-(1-(3-(2-cyclobutylpyridin-4-yl)-1,2,4-oxadiazol-5-yl)ethyl) benzamide] | ≤ 1000 nM
Cc1cc(C(=O)N[C@@H](C)c2nc(-c3ccnc(C4CC4)c3)no2)ccn1 [Compound I-101, (S)—N-(1-(3-(2-cyclopropylpyridin-4-yl)-1,2,4-oxadiazol-5-yl)ethyl)-2-methyl isonicotinamide] | ≤ 1000 nM
C[C@H](NC(=O)c1cc(F)cc(F)c1)c1nc(-c2ccnc(C3CC3)c2)no1 [Compound I-102, (S)—N-(1-(3-(2-cyclopropylpyridin-4-yl)-1,2,4-oxadiazol-5-yl)ethyl)-3,5-difluorobenzamide] | ≤ 1000 nM
C[C@H](NC(=O)c1cccc(OC(F)(F)F)c1)c1nc(-c2ccnc(C3CC3)c2)no1 [Compound I-103, (S)—N-(1-(3-(2-cyclopropylpyridin-4-yl)-1,2,4-oxadiazol-5-yl)ethyl)-3-(trifluoromethoxy)benzamide] | ≤ 1000 nM
C[C@H](NC(=O)c1nccn1C1CCC1)c1nc(-c2ccnc(C3CC3)c2)no1 [Compound I-104, (S)-1-cyclobutyl-N-(1-(3-(2-cyclopropylpyridin-4-yl)-1,2,4-oxadiazol-5-yl)ethyl)-1H-imidazole-2-carboxamide] | 1000 to 20000 nM
C[C@H](NC(=O)C1CCCC1)c1nc(-c2ccnc(C3CC3)c2)no1 [Compound I-105, (S)—N-(1-(3-(2-cyclopropylpyridin-4-yl)-1,2,4-oxadiazol-5-yl)ethyl)cyclopentanecarboxamide] | ≤ 1000 nM

The remaining lines, values ahead:

IC50 | SMILES
≤ 1000 nM | CC(C)Oc1cc(-c2noc([C@H](C)NC(=O)NC(C)(C)C)n2)ccn1 [II-1]
≤ 1000 nM | CC(C)Oc1cc(-c2noc([C@H](C)NC(=O)N3CCCCC3)n2)ccn1 [II-2]
≤ 1000 nM | CC(C)Oc1cc(-c2noc([C@H](C)NC(=O)N3CCCc4ccccc43)n2)ccn1 [II-3]
≤ 1000 nM | CC(C)Oc1cc(-c2noc([C@H](C)NC(=O)N3CCOc4ccccc43)n2)ccn1 [II-4]
≤ 1000 nM | CC(C)Oc1cc(-c2noc([C@H](C)NC(=O)N(C)C(C)(C)C)n2)ccn1 [II-5]
≤ 1000 nM | C[C@H](NC(=O)N1CCOc2ccccc21)c1nc(-c2ccnc(C3CC3)c2)no1 [II-6]
≤ 1000 nM | C[C@H](NC(=O)NC(C)(C)C)c1nc(-c2ccnc(C3CC3)c2)no1 [II-7]
≤ 1000 nM | C[C@H](NC(=O)N1CCCc2ccccc21)c1nc(-c2ccnc(C3CC3)c2)no1 [II-8]
≤ 1000 nM | C[C@H](NC(=O)N(C)C(C)(C)C)c1nc(-c2ccnc(C3CC3)c2)no1 [II-9]
1000 to 20000 nM | C[C@H](NC(=O)N1CCCCC1)c1nc(-c2ccnc(C(F)(F)F)c2)no1 [II-10]
≤ 1000 nM | C[C@H](NC(=O)N1CCc2ccccc2C1)c1nc(-c2ccnc(C(F)(F)F)c2)no1 [II-11]
≤ 1000 nM | C[C@H](NC(=O)N(C)c1ccccc1)c1nc(-c2ccnc(C(F)(F)F)c2)no1 [II-12]
≥ 20000 nM | C[C@H](NC(=O)CN(C)C)c1nc(-c2ccnc(C(F)(F)F)c2)no1 [III-1, (S)-2-(dimethylamino)-N-(1-(3-(2-(trifluoromethyl)pyridin-4-yl)-1,2,4-oxadiazol-5-yl)ethyl)acetamide]
1000 to 20000 nM | C[C@H](NC(=O)CC(F)(F)F)c1nc(-c2ccnc(C(F)(F)F)c2)no1 [III-2, (S)-3,3,3-trifluoro-N-(1-(3-(2-(trifluoromethyl)pyridin-4-yl)-1,2,4-oxadiazol-5-yl)ethyl)propenamide]
1000 to 20000 nM | C[C@H](NC(=O)CC(C)(C)C)c1nc(-c2ccnc(C(F)(F)F)c2)no1 [III-3, (S)-3,3-dimethyl-N-(1-(3-(2-(trifluoromethyl)pyridin-4-yl)-1,2,4-oxadiazol-5-yl)ethyl)butanamide]
≤ 1000 nM | C[C@H](NC(=O)CN(C)c1ccccc1)c1nc(-c2ccnc(C(F)(F)F)c2)no1 [III-4, (S)-2-(methyl(phenyl)amino)-N-(1-(3-(2-(trifluoromethyl)pyridin-4-yl)-1,2,4-oxadiazol-5-yl)ethyl)acetamide]
≤ 1000 nM | C[C@H](NC(=O)C(C)(C)C)c1nc(-c2ccnc(C3CC3)c2)no1 [III-5]
